Experimental data from the NIST ThermoML archive (doi:10.1021/acs.jced.7b00946).

Assay: molar heat capacity at constant pressure
Details: Gas, Flow calorimetry

C=C(F)C(F)(F)F [2,3,3,3-tetrafluoro-1-propene]
Details	molar heat capacity at constant pressure [J/K/mol]
373.15 K, 3498 kPa	410.55
373.15 K, 4114 kPa	394.58
373.15 K, 4160 kPa	387.74
373.15 K, 4441 kPa	288.53
373.15 K, 4642 kPa	273.7
373.15 K, 4921 kPa	245.19
373.15 K, 5047 kPa	238.35
373.15 K, 5955 kPa	210.98
373.15 K, 6023 kPa	210.98
373.15 K, 8020 kPa	187.03
373.15 K, 8021 kPa	188.17
373.15 K, 8024 kPa	188.17
393.15 K, 4039 kPa	218.96
393.15 K, 4040 kPa	217.82
393.15 K, 4943 kPa	345.55
393.15 K, 4944 kPa	339.84
393.15 K, 5417 kPa	322.74
393.15 K, 5958 kPa	278.26
393.15 K, 6022 kPa	275.98
393.15 K, 7949 kPa	205.27
393.15 K, 8043 kPa	205.27
393.15 K, 10032 kPa	188.17
413.15 K, 4015 kPa	173.34
413.15 K, 4989 kPa	207.56
413.15 K, 5045 kPa	208.7
413.15 K, 6037 kPa	244.05
413.15 K, 6963 kPa	245.19
413.15 K, 6965 kPa	241.77
413.15 K, 8042 kPa	228.08
413.15 K, 8043 kPa	228.08
413.15 K, 10030 kPa	201.85
